Laboratory results reported in patent publication US6579881B2 (Eisai Co., Ltd., priority 1997, dated 2003).

Columns and labels:
serotonin 1A receptor = target: T1, serotonin 1A receptor (Rattus norvegicus, UniProt P19327); assay: Binding test on [3H] 8-hydroxy-dipropylaminotetralin (serotonin 1A receptor); details: [3H] 8-OH-DPAT 0.5 nM, receptor fraction of rat hippocampus; read-out: 5HT1a
T1 construct: To the receptor fraction of the hippocampus were added a test compound and 0.5 nM of [^3H]; 8-hydroxy-dipropylaminotetralin; from tissue; host or cells: SD rat hippocampus, membrane (receptor) fraction
T1 sequence (P19327 1-422): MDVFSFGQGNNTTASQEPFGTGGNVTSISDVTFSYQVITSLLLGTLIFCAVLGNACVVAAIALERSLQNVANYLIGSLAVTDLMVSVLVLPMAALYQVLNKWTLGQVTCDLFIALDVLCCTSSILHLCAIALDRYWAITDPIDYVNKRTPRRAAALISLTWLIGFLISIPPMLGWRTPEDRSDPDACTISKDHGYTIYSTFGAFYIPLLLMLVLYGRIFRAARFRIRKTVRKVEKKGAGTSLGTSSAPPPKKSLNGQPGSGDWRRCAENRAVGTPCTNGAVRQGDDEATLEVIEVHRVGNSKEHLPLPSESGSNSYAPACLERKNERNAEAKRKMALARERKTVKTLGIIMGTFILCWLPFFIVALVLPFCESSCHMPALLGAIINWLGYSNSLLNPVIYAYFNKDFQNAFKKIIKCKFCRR

serotonin 2 receptor = serotonin 2 receptor (Rattus norvegicus, UniProt P14842); assay: Binding test on [3H] ketanserin (serotonin 2 receptor); details: [3H] ketanserin 0.3 nM, receptor fraction of rat cerebral cortex; read-out: 5HT2
α1 adrenalin receptor = assay: Binding test on [3H] prazosin (α1 adrenalin receptor); set-up: species or system rat; details: [3H] prazosin about 0.2 nM, receptor fraction of rat cerebral cortex

Chain of serotonin 2 receptor (P14842 whole entry): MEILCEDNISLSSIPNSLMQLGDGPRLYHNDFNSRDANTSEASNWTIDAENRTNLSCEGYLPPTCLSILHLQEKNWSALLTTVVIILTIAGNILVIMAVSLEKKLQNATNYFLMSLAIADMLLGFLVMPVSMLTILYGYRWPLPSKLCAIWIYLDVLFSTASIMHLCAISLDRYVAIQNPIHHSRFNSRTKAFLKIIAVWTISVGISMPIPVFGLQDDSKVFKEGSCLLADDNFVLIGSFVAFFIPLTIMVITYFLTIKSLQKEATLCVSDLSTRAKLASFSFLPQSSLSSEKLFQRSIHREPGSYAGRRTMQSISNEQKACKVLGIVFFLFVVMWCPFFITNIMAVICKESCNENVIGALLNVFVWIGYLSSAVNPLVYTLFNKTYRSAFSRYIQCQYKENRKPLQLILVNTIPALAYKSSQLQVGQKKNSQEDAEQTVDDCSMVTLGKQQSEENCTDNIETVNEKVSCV

Ki (serotonin 1A receptor) | Ki (serotonin 2 receptor) | Ki (α1 adrenalin receptor) | melting point | SMILES
7.59 nM | 3.31 nM | 163 nM | 58 to 59 °C | O=C(CCO)NCc1ccc2ccn(C3CCN(CCc4ccccc4F)CC3)c2c1 [Example 382, 1-[1-(2-fluorophenethyl)piperidin-4-yl]-6-(3-hydroxypropionylamino)methylindole]
0.42 nM | 3.11 nM | 61.6 nM | 79 to 80 °C | O=C(NCc1ccc2ccn(C3CCN(CCc4ccc(F)cc4)CC3)c2c1)C(F)F [Example 365, 1-[1-(4-fluorophenethyl)piperidin-4-yl]-6-difluoroacetamidomethylindole]
1.04 nM | 2.64 nM | 99 nM | 141 to 142 °C | CCC(=O)NCc1ccc2ccn(C3CCN(CCc4ccc(F)cc4)CC3)c2c1 [Example 327, 1-[1-(4-fluorophenethyl)piperidin-4-yl]-6-propionylaminomethylindole]
0.27 nM | > 20 nM | 175 nM | 101 to 102 °C | COc1ccc(CCN2CCC(n3ccc4ccc(CNC(C)=O)cc43)CC2)cc1 [Example 351, 1-[1-(4-methoxyphenethyl)piperidin-4-yl]-6-acetamidomethylindole]
1.72 nM | 6.83 nM | 116 nM | 116.8 to 117.5 °C | OCc1ccc2ccn(C3CCN(CCc4ccccc4F)CC3)c2c1 [Example 391, 1-[1-(2-fluorophenethyl)piperidin-4-yl]-6-hydroxymethylindole]
0.85 nM | 3.64 nM | 195 nM | 156.4 to 156.8 °C | O=C(Cc1ccc2ccn(C3CCN(CCc4ccc(F)cc4)CC3)c2c1)NC1CC1 [Example 295, 1-[1-(4-fluorophenethyl)piperidin-4-yl]-6-[N-(cyclopropylcarbamoyl)methyl]indole]
5.34 nM | 1.81 nM | 120 nM | 151 to 152 °C | O=C(CO)NCc1ccc2ccn(C3CCN(CCc4ccccc4F)CC3)c2c1 [Example 383, 1-[1-(2-fluorophenethyl]piperidin-4-yl]-6-hydroxyacetamidomethylindole]
3.85 nM | 1.02 nM | 123 nM | 113.2 to 114.4 °C | COCCNC(=O)Cc1ccc2ccn(C3CCN(CCc4ccc(F)cc4)CC3)c2c1 [Example 309, 1-[1-(4-fluorophenethyl)piperidin-4-yl]-6-(2-methoxyethyl)carbamoylmethylindole]
7.02 nM | 0.83 nM | 51.5 nM | 111.8 to 112.9 °C | CN(C)CCNC(=O)Cc1ccc2ccn(C3CCN(CCc4ccc(F)cc4)CC3)c2c1 [Example 307, 1-[1-(4-fluorophenethyl)piperidin-4-yl]-6-(2-dimethylaminoethyl)carbamoylmethylindole]
2.06 nM | > 20 nM | 140 nM | 101 to 102 °C | CC(=O)NCc1ccc2c(Cl)cn(C3CCN(CCc4ccc(F)cc4)CC3)c2c1 [Example 328, 3-chloro-1-[1-(4-fluorophenethyl)piperidin-4-yl]-6-acetamidomethylindole]
1.28 nM | 2.27 nM | 27.1 nM | 192 °C (dec.) | CNC(=O)NCc1ccc2ccn(C3CCN(CCc4ccc(F)cc4)CC3)c2c1 [Example 397, 1-[1-(4-fluorophenethyl)piperidin-4-yl]-6-(3-methylureido)methylindole]
1.5 nM | 3.39 nM | 106 nM | 116 to 117 °C | O=C(NCc1ccc2ccn(C3CCN(CCc4ccc(F)cc4)CC3)c2c1)C1CC1 [Example 363, 1-[1-(4-fluorophenethyl)piperidin-4-yl]-6-cyclopropanecarboxamidomethylindole]
0.14 nM | > 20 nM | 86.9 nM | 90 to 92 °C | CC(C)S(=O)(=O)NCc1ccc2ccn(C3CCN(CCc4ccc(F)cc4)CC3)c2c1 [Example 323, 1-[1-(4-fluorophenethyl)piperidin-4-yl]-6-isopropylsulfonamidomethylindole]
2.87 nM | 1.56 nM | 116 nM | 118 to 119 °C | CCC(=O)NCc1ccc2ccn(C3CCN(CCc4ccccc4F)CC3)c2c1 [Example 380, 1-[1-(2-fluorophenethyl)piperidin-4-yl]-6-propionylaminomethylindole]
0.04 nM | > 20 nM | 212 nM | 152 to 154 °C | Fc1ccc(CCN2CCC(n3ccc4cc5scnc5cc43)CC2)cc1 [Example 334, 1-[1-(4-fluorophenethyl)piperidin-4-yl]thiazolo[5.4-f]indole]
0.08 nM | 30.4 nM | 41.3 nM | 121 to 122 °C | CS(=O)(=O)NCc1ccc2ccn(C3CCN(CCc4ccc(F)cc4)CC3)c2c1 [Example 322, 1-[1-(4-fluorophenethyl)piperidin-4-yl]-6-methanesulfonamidomethylindole]
1.63 nM | 1.76 nM | 45.8 nM | 121 to 122 °C | O=C(CCCl)NCc1ccc2ccn(C3CCN(CCc4ccc(F)cc4)CC3)c2c1 [Example 367, 1-[1-(4-fluorophenethyl)piperidin-4-yl]-6-(3-chloropropionylamino)methylindole]
0.78 nM | 12.6 nM | 144 nM | 156 to 157 °C | O=C1CNC(=O)N1Cc1ccc2ccn(C3CCN(CCc4ccc(F)cc4)CC3)c2c1 [Example 353, 1-[1-(4-fluorophenethyl)piperidin-4-yl]-6-(2,4-imidazolidinedion-3-yl)methylindole]
0.14 nM | > 20 nM | 203 nM | 131 to 133 °C | OCCCc1ccc2ccn(C3CCN(CCc4ccc(F)cc4)CC3)c2c1 [Example 321, 1-[1-(4-fluorophenethyl)piperidin-4-yl]-6-(3-hydroxypropyl)indole]

SMILES | Ki (serotonin 1A receptor) | Ki (serotonin 2 receptor) | Ki (α1 adrenalin receptor) | melting point
CCNC(=O)Cc1ccc2ccn(C3CCN(CCc4ccc(F)cc4)CC3)c2c1 [Example 294, 1-[1-(4-fluorophenethyl)piperidin-4-yl]-6-(ethylcarbamoylmethyl)indole] | 1.05 nM | 2.86 nM | 80.7 nM | 159.6 to 160.1 °C
CNC(=O)Cc1ccc2ccn(C3CCN(CCc4ccccc4F)CC3)c2c1 [Example 342, 1-[1-(2-fluorophenethyl)piperidin-4-yl]-6-methylcarbamoylmethylindole] | 0.65 nM | 38.1 nM | 25 nM | 136.5 to 137.4 °C
CC(=O)NCc1ccc2ccn(C3CCN(CCc4ccccc4F)CC3)c2c1 [Example 352, 1-[1-(2-fluorophenethyl)piperidin-4-yl]-6-acetamidomethylindole] | 1.58 nM | 0.75 nM | 96.7 nM | 101 to 102 °C
CCNC(=O)Cc1ccc2ccn(C3CCN(CCc4ccccc4F)CC3)c2c1 [Example 344, 1-[1-(2-fluorophenethyl)piperidin-4-yl]-6-ethylcarbamoylmethylindole] | 1.78 nM | 1.64 nM | 74.9 nM | 147 to 148.6 °C
